One test has as its system A549 cells. The experiment in a line: A549 cell proliferation in low-serine medium (CellTiter-Glo 2.0 viable cell number). To be noted: Homo sapiens, 72 h, 3 days, Assay Medium with 20 μM L-serine. In kind it is cell-based. As for the experimental part:
The effect of compounds of Formula (Ia) on A549 cell proliferation in low-serine medium was assessed using a luminescence assay of viable cell number (CellTiter-Glo® 2.0, Promega) duplexed with a fluorescent cytotoxicity assessment (CelITox™ Green, Promega). Cell culture reagents were from ThermoFisher unless specified otherwise. Assay reagents were from Sigma-Aldrich unless specified otherwise. Test Compounds were prepared as 10 mM DMSO stocks and dilution series prepared in DMSO for direct dilution into culture medium.
Cells were passaged every 3-4 days at 80-90% confluence. The cell monolayer was washed twice with room-temperature Ca^2+/Mg-free PBS and 4 ml room-temperature trypsin-EDTA added to the flask. After 5 minutes' incubation (37° C., 5% CO2) to detach cells, trypsin was quenched with 13 ml warmed complete growth medium and the cells harvested and diluted to 2.4×10^4 cells/ml for dispensing into 384-well clear-bottom black-walled plates (600 cells/well).
Following overnight incubation, growth medium was aspirated from each well and the cells washed twice with Assay Medium comprising Basal Medium Eagle supplemented with 3% heat-inactivated dialysed FBS plus 2 mM L-glutamine plus 20 μM L-serine (Sigma-Aldrich). After aspiration of the final wash medium, Assay Medium containing Test Compound was added to each well. DMSO vehicle controls were included on each plate.
Cells were incubated for 3 days in a humidified incubator (37° C., 5% CO2) at which point CelITox™ Green and CellTiter-Glo® reagents were prepared according to the manufacturer's instructions. Triton-X was added to HIGH wells for cytotoxicity determination and the plate incubated for 30 minutes (20° C., ambient humidity and pCO2). CelITox™ Green reagent was added to each well and the plate covered, placed on an orbital shaker @450 rpm for 2 minutes, and incubated in the dark for 15 minutes (20° C., ambient humidity and pCO2). Endpoint fluorescence was measured using a plate reader (PHERAstar® FSX, BMG Labtech).
Following cytotoxicity determination, CellTiter-Glo® reagent was added to each well and the plate placed on an orbital shaker @450 rpm for 2 minutes to lyse cells. Plates were incubated in the dark for 15-30 minutes (20° C., ambient humidity and pCO2) prior to endpoint luminescence measurement (PHERAstar® FSX, BMG Labtech).
Proliferation was calculated by normalizing luminescence signals to LOW controls obtained from a parallel plate processed at the time of Test Compound challenge and HIGH (DMSO vehicle) wells from the compound plate. IC50 values were determined from a 4-parameter logistic fit of compound concentration-response curves.

A further test concerns the target T1, recombinant human PKM2 (Homo sapiens, UniProt P14618).
T1 construct: His (N); purchased R&D Systems
As to the kind of experiment: Human PKM2 activation assay (Kinase-Glo Plus luminescent detection of generated ATP). In kind it is biochemical. To be noted: for Emax: percentage activation normalised to DMSO vehicle (LOW) and 5 μM TEPP-46 (HIGH), read-out: hPKM2 Emax; for EC50: recombinant human PKM2 activation, 4-parameter logistic fit, read-out: hPKM2 EC50. The procedure, abridged:
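N-His-tagged recombinant hPKM2 ([…]) with PEP and ADP was incubated with compound for 60 min at 26 °C, shaking, in 50 mM imidazole, 50 mM KCl, 7 mM MgCl2, 0.01% Tween20, 0.05% BSA, pH 7.2. ATP produced was read by Kinase-Glo Plus luminescence after 15 min.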

The target of a further test is T2, recombinant human PKLR (Homo sapiens, UniProt P30613).
T2 construct: His (N); purchased R&D Systems
The experiment in a line: Human PKLR activation assay (Kinase-Glo Plus luminescent detection of generated ATP). In kind it is biochemical. A general note: Kinase-Glo measures the ATP left after a reaction by luminescence.

T1 sequence (P14618 2-531 limits assumed): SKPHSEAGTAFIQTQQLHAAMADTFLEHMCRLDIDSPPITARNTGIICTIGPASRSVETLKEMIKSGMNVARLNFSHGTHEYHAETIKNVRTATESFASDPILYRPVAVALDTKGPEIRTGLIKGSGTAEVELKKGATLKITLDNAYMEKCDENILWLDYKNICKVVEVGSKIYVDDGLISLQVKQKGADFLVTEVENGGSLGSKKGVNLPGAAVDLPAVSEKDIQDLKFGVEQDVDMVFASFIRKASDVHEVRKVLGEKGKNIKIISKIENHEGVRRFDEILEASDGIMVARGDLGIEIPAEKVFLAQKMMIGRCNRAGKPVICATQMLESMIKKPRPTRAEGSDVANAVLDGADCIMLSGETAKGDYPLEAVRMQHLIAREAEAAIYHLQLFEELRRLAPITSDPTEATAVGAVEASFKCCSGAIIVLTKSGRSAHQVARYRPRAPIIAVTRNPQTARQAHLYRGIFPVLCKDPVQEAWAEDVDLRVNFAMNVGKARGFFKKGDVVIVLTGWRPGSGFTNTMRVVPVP
T2 sequence (P30613 whole entry): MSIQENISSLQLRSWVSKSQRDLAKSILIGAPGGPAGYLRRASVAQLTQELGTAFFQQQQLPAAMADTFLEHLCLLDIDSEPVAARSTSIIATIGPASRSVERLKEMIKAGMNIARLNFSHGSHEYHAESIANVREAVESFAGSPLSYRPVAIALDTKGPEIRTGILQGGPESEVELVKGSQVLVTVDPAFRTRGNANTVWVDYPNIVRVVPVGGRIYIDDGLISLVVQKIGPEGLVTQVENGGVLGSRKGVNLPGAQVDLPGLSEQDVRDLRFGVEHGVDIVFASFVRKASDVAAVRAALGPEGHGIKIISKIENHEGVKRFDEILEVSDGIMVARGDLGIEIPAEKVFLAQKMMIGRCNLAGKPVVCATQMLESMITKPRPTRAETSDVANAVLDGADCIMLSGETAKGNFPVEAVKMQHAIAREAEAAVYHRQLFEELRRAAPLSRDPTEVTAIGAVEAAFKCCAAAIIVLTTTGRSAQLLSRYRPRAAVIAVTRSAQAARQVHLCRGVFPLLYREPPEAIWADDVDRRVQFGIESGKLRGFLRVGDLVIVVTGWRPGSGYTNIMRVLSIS

The IC50 is the midpoint of a concentration-inhibition curve. High values mean lower potency, low ones higher potency. A word on the Emax: it is the greatest response seen or fitted, relative to the assay's reference. For orientation: EC50 means the concentration needed to bring the measured effect to its halfway point. Compound `COc1ccc(C(C)n2ncc3cc(S(=O)(=O)c4ccccc4)ccc3c2=O)cn1` (stereo not drawn) [Example 74, 2-(1-(6-methoxypyridin-3-yl)ethyl)-6-(phenylsulfonyl)phthalazin-1(2H)-one] came in with an IC50 with A549 cells of 38.7 nM. Further, on recombinant human PKM2, the Emax stood at 91.2% and the EC50 is 218 nM.
For `COCC(c1ccccc1)n1ncc2cc(S(=O)(=O)c3ccccc3)ccc2c1=O` (stereo not drawn) [Example 67, 2-(2-methoxy-1-phenylethyl)-6-(phenylsulfonyl)phthalazin-1(2H)-one], in that order: 3.3 nM, 91.4% and 185 nM.
Taken in the same sequence, the figures for `O=c1c2ccc(S(=O)(=O)c3ccccc3)cc2cnn1Cc1cc2ccccn2n1` [Example 108, 6-(phenylsulfonyl)-2-(pyrazolo[1,5-a]pyridin-2-ylmethyl)phthalazin-1(2H)-one] were 2 nM, 132% and 178 nM.
Taken in the same sequence, the figures for `COc1ccc(S(=O)(=O)c2ccc3c(=O)n(Cc4cccnc4)ncc3c2)cc1` [Example 42, 6-((4-methoxyphenyl)sulfonyl)-2-(pyridin-3-ylmethyl)phthalazin-1(2H)-one] were 1.5 nM, 103% and 64.5 nM.
Consider `O=c1c2ccc(S(=O)(=O)c3ccccc3)cc2cnn1C(F)(F)c1cccnc1` [Example 78, 2-(difluoro(pyridin-3-yl)methyl)-6-(phenylsulfonyl)phthalazin-1(2H)-one], for which the midpoint of inhibition in the test on A549 cells, the IC50, lay at 89.1 nM. For the same compound, on recombinant human PKM2, the Emax came out at 99% and the EC50 was determined as 802 nM.
Taken in the same sequence, the figures for `COc1ccc(Cn2ncc3cc(S(=O)(=O)c4ccccc4)ccc3c2=O)nc1` [Example 59, 2-((5-methoxypyridin-2-yl)methyl)-6-(phenylsulfonyl)phthalazin-1(2H)-one] were 3.2 nM, 107% and 68.9 nM.
For `COc1ccc(S(=O)(=O)c2ccc3c(=O)n(Cc4cccc5c4CCN5)ncc3c2)cc1` [Example 2, 2-(indolin-4-ylmethyl)-6-((4-methoxyphenyl)sulfonyl)phthalazin-1(2H)-one], in that order: 0.8 nM, 97% and 66.4 nM.
Taken in the same sequence, the figures for `COc1ccc(S(=O)(=O)c2ccc3c(=O)n(Cc4ccno4)ncc3c2)cc1` [Example 45, 2-(isoxazol-5-ylmethyl)-6-((4-methoxyphenyl)sulfonyl)phthalazin-1(2H)-one] were 26.2 nM, 83.5% and 435 nM.
Turning to `Cc1c[nH]nc1Cn1ncc2cc(S(=O)(=O)c3ccccc3)ccc2c1=O` [Example 12, 2-((4-methyl-1H-pyrazol-3-yl)methyl)-6-(phenylsulfonyl)phthalazin-1(2H)-one], the half-inhibitory concentration (IC50) in the test with A549 cells came to 2.7 nM. Moreover, at recombinant human PKM2, the maximal effect (Emax) is 92% and the EC50 turned out to be 63.6 nM.
`CC1Cc2cc(Cn3ncc4cc(S(=O)(=O)c5ccccc5)ccc4c3=O)ccc2O1` (stereo not drawn) [Example 64, 2-((2-methyl-2,3-dihydrobenzofuran-5-yl)methyl)-6-(phenylsulfonyl)phthalazin-1(2H)-one]: the half-maximal inhibitory concentration (IC50) in the test on A549 cells is 2.1 nM. For the same compound, at recombinant human PKM2, the maximum response (Emax) worked out at 96.4% and the EC50 stood at 45 nM.
As to `O=C(c1ccc(NS(=O)(=O)c2cccc3cccnc23)cc1)N1CCN(CC2CC2)CC1` [Mitapivat, mitapivat, reference compound], it took 4.4 nM to reach half-maximal inhibition in the test with A549 cells (IC50).
Still for that read-out and setting: the figure for `COc1ccc(S(=O)(=O)c2ccc3c(=O)n(Cc4ccnc(O)c4)ncc3c2)cc1` [Example 55, 2-((2-hydroxypyridin-4-yl)methyl)-6-((4-methoxyphenyl)sulfonyl)phthalazin-1(2H)-one] is 21.7 nM.
In the case of `Cn1ccc(Cn2ncc3cc(S(=O)(=O)c4ccc5c(c4)NCCO5)ccc3c2=O)n1` [Example 201, 6-((3,4-dihydro-2H-benzo[b][1,4]oxazin-6-yl)sulfonyl)-2-((1-methyl-1H-pyrazol-3-yl)methyl)phthalazin-1(2H)-one], the Emax on recombinant human PKM2 worked out at 103%; at recombinant human PKLR (percentage activation normalised to DMSO vehicle (LOW) and 5 μM TEPP-46 (HIGH) controls, read-out: hPKLR Emax (%)), 140%. The concentration for a half-maximal effect (EC50) was 27.9 nM at recombinant human PKM2 and 2.9 nM on recombinant human PKLR (activation of recombinant human PKLR, 4-parameter logistic fit, read-out: hPKLR EC50).

The values above are taken from patent US20260152487A1 (Sitryx Therapeutics Limited, priority 2021, published 2026).
